The values below come from patent publication US20210292765A1, “COMPOSITIONS COMPRISING INTERMEDIATE NON-CODING RNA REGULATORS MODULATING THE EXPRESSION OF ETV6 OR FOXO1 AND USES THEREOF” (University of Exeter, priority 2018, published 2021).

What all share (type): cell-based
The test system of series [1] is late passage primary human fibroblast cells. The series is described as follows: SASP protein levels in culture medium (MesoScale multiplex ELISA). As to conditions: 24 hrs, culture medium from senescent cells. How it is done: Late passage primary human fibroblast cells at PD=63 were seeded at 6×10^4 cells per well in a 6 well plate, cultured for 10 days and then treated with at 1 μM or 10 μM trametinib (MEK/ERK inhibitor) or SH-6 (AKT inhibitor) for 24 hours. Cell supernatants were then harvested and stored at −80° C. Levels of GMCSF, IFNγ, IL1β, IL2, IL6, IL8, IL10, IL-12p70, and TNFα SASP components were measured in cell supernatants from treated and vehicle-only control cells using the K15007B MesoScale Discovery multiplex ELISA immunoassay (MSD, Rockville, USA) in 4 biological replicates. Proteins were quantified relative to a standard curve using a Sector Imager SI-6000 according to the manufacturer's instructions.
(In an ELISA, binding on a coated surface is turned into a signal by an enzyme label.)

Series [2] concerns late passage primary human fibroblasts. The series is described as follows: Cell proliferation index by Ki67 immunofluorescence. As to conditions: for increase in proliferative index: gene knockdown with morpholino oligonucleotides (10 μM). How it is done:
The proliferative capacity of treated cells was assessed by Ki67 and BrdU staining and by cell counts. Late passage primary human fibroblasts at PD=63 were seeded at 1×10^4 cells per well in 3 biological replicates in 24-well plates, allowed to grow for 10 days and then assayed for cell proliferation by ki67 staining. For assessment of cells in S phase, late passage primary human fibroblasts at PD=63 were seeded at 1×10^4 cells per coverslip as 3 biological replicates in 24-well plates, allowed to grow for 10 days and then were incubated with 5-Bromo-2′-deoxy-uridine (BrdU) for 24 hrs. BrdU incorporation was determined by the 5-Bromo-2′-deoxy-uridine labeling and detection kit I following instructions of the manufacturer (Roche Molecular Biochemicals). BrdU positive cells were visualized and counted by fluorescence microscopy. Cell counts were carried out manually in 3 biological replicates in treated and vehicle-only cultures following trypsinisation and suspension of cells and are presented as mean (+/−SEM). Following treatment, cells were fixed for 10 min with 4% PFA and permeabilized with 0.025% Triton and 10% serum in PBS for 1 hour. Ki-67 staining was carried out by rabbit monoclonal antibody (ab16667, Abcam, UK) at a 1:400 dilution and samples were incubated overnight at 4° C., followed by FITC-conjugated secondary goat anti-rabbit antibody (1:400) for 1 hour, and nuclei were counterstained with DAPI. Coverslips were mounted on slides in DAKO fluorescence mounting medium (S3023; Dako, Santa Clara, USA). The proliferation index was determined by counting the percentage of Ki67 positive cells from at least 400 nuclei from each biological replicate at 400× magnification under a Leica D4000 fluorescence microscope.

Series [3] relates to senescent primary human fibroblasts. The series is described as follows: Splicing factor transcript expression by qRTPCR (TLDA). The following applies: 24 hrs, control = 1.00. The protocol:
Late passage primary human fibroblasts at PD=63 were seeded at 6×10^4 cells per well as 3 biological replicates in 6-well plates, allowed to grow for 10 days and then treated with the ERK inhibitor trametinib or the AKT inhibitor SH-6 at 1 μM or 10 μM for 24 hrs. Vehicle (DMSO) only controls were also included under the same growth conditions. The expression levels of 20 splicing factor transcripts previously associated with age, replicative senescence or lifespan in our previous work (Harries et al. 2011; Holly et al. 2013; Lee et al. 2016) were then assessed by qRTPCR. RNA was extracted using TRI Reagent® (Life Technologies, Foster City USA) according to the manufacturer's instructions. Total RNA (100 ng) was reverse transcribed in 20 μl reactions using the Superscript III VILO kit (Life Technologies). Transcript expression was then quantified in duplicate for each biological replicate using TaqMan Low Density Array (TLDA) on QuantStudio 12K Flex (Applied Biosystems, Foster City, USA). Cycling conditions were 1 cycle each of 50° C. for 2 min, 94.5° C. for 10 min and then 40 cycles of 97° C. for 30 s and 57.9° C. for 1 min. The reaction mixes included 50 μl TaqMan Fast Universal PCR Mastermix (Life Technologies), 30 μl dH2O and 20 μl cDNA template. 100 μl reaction mixture was dispensed into the TLDA card chamber and centrifuged twice for 1 min at 1000 rpm. Transcript expression was assessed by the Comparative Ct approach, relative to the IDH3B, GUSB and PP/A endogenous control genes and normalised to their expression in RNA from untreated late passage cells.
In general terms: In qPCR the cycle at which signal appears reflects the starting amount.

In series [4] the test system is late passage primary human fibroblasts. Nature of the series: CDKN2A (p16) and CDKN1A (p21) expression by qRTPCR. The following applies: gene knockdown with morpholino oligonucleotides (10 μM).
For series [5] the test system is unchanged. Nature of the series: Cellular senescence by SA-β-Gal staining. As to conditions: gene knockdown with morpholino oligonucleotides (10 μM).

Marks after values point to notes of the source that are not given here.

Turning to `CC(=O)Nc1cccc(-n2c(=O)n(C3CC3)c(=O)c3c(Nc4ccc(I)cc4F)n(C)c(=O)c(C)c32)c1` [Trametinib, trametinib], in series [1] (1 uM), the “GM-CSF SASP protein expression” value was 24.65*** percentage of the control value, the “IL1b SASP protein expression” value is 156.70** percentage of the control value, the “IL2 SASP protein expression” value is recorded as 50.72** percentage of the control value and the “IL6 SASP protein expression” value is recorded as 77.75 percentage of the control value. In series [1] (1 uM), the “IL8 SASP protein expression” value is on record as 44.42** percentage of the control value, the “IL10 SASP protein expression” value is 34.37*** percentage of the control value, the “IL12p70 SASP protein expression” value is 69.64 percentage of the control value and the “INF-g SASP protein expression” value is 95.08 percentage of the control value. In addition, the “TNFa SASP protein expression” value in series [1] (1 uM) is recorded as 104.61 percentage of the control value. Moreover, in series [1] (10 uM), the “GM-CSF SASP protein expression” value is 9.85*** percentage of the control value, the “IL1b SASP protein expression” value was 50.35** percentage of the control value, the “IL2 SASP protein expression” value is listed as 14.39*** percentage of the control value and the “IL6 SASP protein expression” value was 33.57*** percentage of the control value. Moreover, in series [1] (10 uM), the “IL8 SASP protein expression” value is recorded as 5.33*** percentage of the control value, the “IL10 SASP protein expression” value is 86.01 percentage of the control value, the “IL12p70 SASP protein expression” value is 77.78 percentage of the control value and the “INF-g SASP protein expression” value was 106.33 percentage of the control value. The “TNFa SASP protein expression” value in series [1] (10 uM) is 118.65 percentage of the control value. Besides, the “increase in proliferative index (Ki67 staining)” value in series [2] (low dose (1 μM)) was 31%. In addition, in series [3] (1 uM), the “AKAP17A splicing factor mRNA expression” value was 2.01***, the “HNRNPA0 splicing factor mRNA expression” value is reported as 2.38***, the “HNRNPA1 splicing factor mRNA expression” value is 1.52* and the “HNRNPA2B1 splicing factor mRNA expression” value is given as 1.53*. In addition, in series [3] (1 uM), the “HNRNPD splicing factor mRNA expression” value is on record as 1.79*, the “HNRNPH3 splicing factor mRNA expression” value is 1.89***, the “HNRNPK splicing factor mRNA expression” value is given as 1.68*** and the “HNRNPM splicing factor mRNA expression” value is listed as 1.46*. Also, in series [3] (1 uM), the “HNRNPUL2 splicing factor mRNA expression” value is recorded as 1.63***, the “IMP3 splicing factor mRNA expression” value is reported as 1.77***, the “LSM2 splicing factor mRNA expression” value is reported as 0.85 and the “LSM14A splicing factor mRNA expression” value is recorded as 1.61**. For the same compound, in series [3] (1 uM), the “PNISR splicing factor mRNA expression” value is 1.63**, the “SF3B1 splicing factor mRNA expression” value was 1.93***, the “SRSF1 splicing factor mRNA expression” value is 1.69* and the “SRSF2 splicing factor mRNA expression” value was 2.07**. In series [3] (1 uM), the “SRSF3 splicing factor mRNA expression” value was 1.64***, the “SRSF6 splicing factor mRNA expression” value is on record as 2.68***, the “SRSF7 splicing factor mRNA expression” value was 2.38*** and the “TRA2B splicing factor mRNA expression” value is 1.66*. In addition, in series [3] (10 uM), the “AKAP17A splicing factor mRNA expression” value is given as 0.74**, the “HNRNPA0 splicing factor mRNA expression” value was determined as 1.11, the “HNRNPA1 splicing factor mRNA expression” value is 0.49*** and the “HNRNPA2B1 splicing factor mRNA expression” value is 0.70***. In series [3] (10 uM), the “HNRNPD splicing factor mRNA expression” value was 0.75**, the “HNRNPH3 splicing factor mRNA expression” value came out at 0.95, the “HNRNPK splicing factor mRNA expression” value is listed as 1.02 and the “HNRNPM splicing factor mRNA expression” value was 0.69***. Also, in series [3] (10 uM), the “HNRNPUL2 splicing factor mRNA expression” value stood at 0.94, the “IMP3 splicing factor mRNA expression” value worked out at 0.97, the “LSM2 splicing factor mRNA expression” value was 0.82 and the “LSM14A splicing factor mRNA expression” value was found to be 1.18. For the same compound, in series [3] (10 uM), the “PNISR splicing factor mRNA expression” value came out at 1.11, the “SF3B1 splicing factor mRNA expression” value was found to be 0.96, the “SRSF1 splicing factor mRNA expression” value is 0.68** and the “SRSF2 splicing factor mRNA expression” value is given as 0.86*. Further, in series [3] (10 uM), the “SRSF3 splicing factor mRNA expression” value is listed as 0.72***, the “SRSF6 splicing factor mRNA expression” value is given as 0.69***, the “SRSF7 splicing factor mRNA expression” value was 0.57*** and the “TRA2B splicing factor mRNA expression” value is 0.73**.

With “FOXO1 morpholino: Antisense morpholino to 5′ untranslated region of FOXO1: TCCCCCAGCCGCAGGAGAGCCAAGA (all phosphorodiamidate morpholino (PMO))”, the “increase in proliferative index” value in series [2] was found to be 19%. For the same compound, in series [4], the “reduction in CDKN2A expression” value came to 43%. The “reduction in senescent cell load as measured by SA-β-Gal staining” value in series [5] is recorded as approximately 40%.

Take “ETV6 morpholino: Antisense morpholino to 5′ untranslated region of ETV6: CATGTCTCACAGCGAGAGAGATCAG (all phosphorodiamidate morpholino (PMO))”: the “increase in proliferative index” value in series [2] is recorded as 36%. In addition, the “reduction in CDKN2A expression” value in series [4] was found to be 24%. Moreover, in series [5], the “reduction in senescent cell load as measured by SA-β-Gal staining” value is listed as approximately 18%.
